Laboratory results published in patent US9896481B2, “Modified mini-hepcidin peptides and methods of using thereof” (priority 2011, dated 2018).
Like-named read-outs stand apart in the source and are kept apart here. Starred links: 1 amine or outer side, 2 acyl side, 3 side chain; linkers in the order of their positions; H or OH if unused. Positions of bridges follow the written chain, without caps; N, C: chain ends. Non-standard residues stand in square brackets, D forms with d. Residues, ends and D or L forms follow the SMILES beside them. *: point of attachment. Ursodeoxycholyl = C[C@H](CCC(=O)*)[C@H]1CC[C@H]2[C@@H]3[C@@H](O)C[C@@H]4C[C@H](O)CC[C@]4(C)[C@H]3CC[C@]12C; TTDA(Palmitoyl) = CCCCCCCCCCCCCCCC(=O)NCCCOCCOCCOCCCN*; PEG12 = NCCOCCOCCOCCOCCOCCOCCOCCOCCOCCOCCOCCOCCC(=O)O; X1 = O=C(C[C@H](N[*:1])C(c1ccccc1)c1ccccc1)[*:2]; dDip = N[C@@H](C(=O)O)C(c1ccccc1)c1ccccc1; Dip = N[C@H](C(=O)O)C(c1ccccc1)c1ccccc1; Palmitoyl = CCCCCCCCCCCCCCCC(=O)*; X2 = O=C(C1CCC(CN[*:1])CC1)[*:2]; β3hF = N[C@H](CC(=O)O)Cc1ccccc1; NMeD = CN[C@@H](CC(=O)O)C(=O)O; Cysteamide = C(CS[*:3])N[*:1]; β3hP = O=C(O)C[C@@H]1CCCN1; AEEEA = NCCOCCOCCOCC(=O)O; Dap = NC[C@H](N)C(=O)O; Inp = O=C(O)C1CCNCC1

Tests used:
C57/Bl6J mice = assay: Serum iron assay in mice on low-iron diet, 4 hours after peptide; type: in vivo, mouse; parameters: key to active in vivo: *active in vivo; details: for active in vivo: asterisk at the EC50 value of Table 1
Description: The decrease in serum iron after peptide administration is the principal measure of hepcidin activity. Thus, as provided herein, the hepcidin activity of selected peptides of the present invention were assayed in vivo by measuring serum iron in test subjects. Briefly, C57/Bl6J mice were maintained on NIH 31 rodent diet (333 parts per million (ppm) iron; Harlan Teklad, Indianapolis, Ind.). Two weeks before the experiment, the mice were switched to a diet containing about 2-4 ppm iron (Harlan Teklad, Indianapolis, Ind.) in order to suppress endogenous hepcidin. Peptide stocks were diluted to desired concentrations in sterile phosphate buffered saline (PBS) or other diluents as described next. Mice were subjected to the following treatments: (a) Injected intraperitoneally either with 100 μl PBS (control) or with 50 μg peptide in 100 μl PBS; (b) Injected with 100 μl of peptide (or PBS) mixed with 500 μg empty liposomes COATSOME EL series (NOF, Tokyo, Japan) (prepared as per manufacturer's recommendation); (c) Injected with 100 μl peptides (or PBS) solubilized with SL220 solubilization agent (NOF, Tokyo, Japan); (d) Gavaged with 250 μl of peptide (or PBS) in 1× solvent (Cremophor EL (Sigma)/ethanol/PBS; (12.5:12.5:75)). Mice were sacrificed 4 hours later, blood was collected by cardiac puncture, and serum was separated using MICROTAINER tubes (Becton Dickinson, Franklin Lakes, N.J.). Serum iron was determined by using a colorimetric assay (Diagnostic Chemicals, Oxford, Conn.), which was modified for the microplate format so that 10 μl serum was used per measurement. The results were expressed as the percentage of decrease in serum iron when compared with the average value of serum iron levels in PBS-treated mice.

mouse = assay: Activity at 20 nmoles/mouse: serum iron 4 hours after injection versus solvent (Tables 3 and 4); type: in vivo; parameters: key: Y: “Active” means that at 4 hours after injection serum iron in peptide-injected mice decreased statistically significantly (p < 0.05) compared to solvent-injected mice; Y*: Exhibits detectable and reproducible activity at about 50% lower than the most active compounds in Table 3 and 4; details: Table 3, intraperitoneal
[1] = target: T1, ferroportin tagged at the C-terminus with green fluorescent protein (Fpn-GFP) (Mus musculus, UniProt Q9JHI9); assay: Flow cytometry of ferroportin-GFP degradation in ECR293/Fpn-GFP cells; type: cell-based; details: for EC50: read-out: EC50
T1 construct: expressed in transfected cells; host or cells: ECR293/Fpn-GFP (stably transfected, ponasterone-inducible)
T1 sequence (Q9JHI9 1-570): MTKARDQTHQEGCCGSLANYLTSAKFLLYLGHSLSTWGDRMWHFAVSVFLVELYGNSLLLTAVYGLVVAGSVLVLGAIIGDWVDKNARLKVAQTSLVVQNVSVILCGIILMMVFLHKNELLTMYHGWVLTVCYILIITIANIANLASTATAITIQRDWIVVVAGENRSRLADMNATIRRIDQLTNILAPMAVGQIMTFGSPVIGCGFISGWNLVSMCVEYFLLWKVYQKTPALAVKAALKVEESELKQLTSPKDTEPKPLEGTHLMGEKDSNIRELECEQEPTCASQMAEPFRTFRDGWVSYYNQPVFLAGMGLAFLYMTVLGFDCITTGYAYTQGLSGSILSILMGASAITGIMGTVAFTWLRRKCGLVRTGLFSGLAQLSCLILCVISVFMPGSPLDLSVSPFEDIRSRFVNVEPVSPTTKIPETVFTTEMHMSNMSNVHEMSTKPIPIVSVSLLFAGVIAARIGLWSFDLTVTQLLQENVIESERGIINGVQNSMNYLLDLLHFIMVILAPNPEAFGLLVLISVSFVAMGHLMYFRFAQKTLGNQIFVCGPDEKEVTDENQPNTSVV
Description: In vitro activity may be measured by the dose-dependent loss of fluorescence of cells engineered to display ferroportin fused to green fluorescent protein as in Nemeth et al. (2006) Blood 107:328-33. Aliquots of cells are incubated for 24 hours with graded concentrations of a reference preparation of Hep25 or a mini-hepcidin. As provided herein, the EC50 values are provided as the concentration of a given compound (e.g. peptide) that elicits 50% of the maximal loss of fluorescence generated by the reference Hep25 preparation.
Mutational studies indicate that C326, the cysteine residue at position 326 of human ferroportin, is the critical residue involved in binding hepcidin. Thus, various N-terminal fragments of Hep25 containing a thiol, i.e. Hep 4-7, Hep3-7, Hep3-8, Hep3-9, Hep1-7, Hep1-8, Hep1-9, and Hep1-10 C7A, were chemically synthesized, refolded and their activities relative to Hep25 were assayed using flow-cytometric quantitation of the ferroportin-GFP degradation, iron efflux estimation based on measurements of cellular ferritin, and radioisotopic iron efflux studies.
The activity of peptides of the present invention was measured by flow cytometry as previously described. See Nemeth et al. (2006) Blood 107:328-333, which is herein incorporated by reference. ECR293/Fpn-GFP, a cell line stably transfected with a ponasterone-inducible ferroportin construct tagged at the C-terminus with green fluorescent protein was used. See Nemeth et al. (2004) Science 306:2090-2093, which is herein incorporated by reference. Briefly, the cells were plated on poly-D-lysine coated plates in the presence of 20 μM FAC, with or without 10 μM ponasterone. After 24 hours, ponasterone was washed off, and cells were treated with peptides for 24 hours. Cells were then trypsinized and resuspended at 1×10^6 cells/ml, and the intensity of green fluorescence was analyzed by flow cytometry. Flow cytometry was performed on FAC SCAN (fluorescence activated cell scanner) Analytic Flow Cytometer (Becton Dickinson, San Jose, Calif.) with […] version 3.3 software (Becton Dickinson). Cells not induced with ponasterone to express Fpn-GFP were used to establish a gate to exclude background fluorescence. Cells induced with ponasterone, but not treated with any peptides, were used as the positive control. Each peptide was tested over the range of concentrations (0, 0.01, 0.03, 0.1, 0.3, 1, 3 and 10 μM). Each peptide treatment was repeated independently 3 to 6 times. For each concentration of peptide, the results were expressed as a fraction of the maximal activity (FHep25) of Hep25 (in the dose range 0.01-10 μM), according to the formula 1−((Fx−FHep25)/(Funtreated−FHep25)), where F was the mean of the gated green fluorescence and x was the peptide.

How did the active in vivo (C57/Bl6J mice) turn out when CC[C@@H](C)[C@@H](NC(=O)[C@@H](Cc1ccccc1)NC(=O)CCOCCOCCOCCOCCOCCOCCOCCOCCOCCOCCOCCOCCNC(=O)[C@@H](CC(=O)O)NC(=O)CC[C@@H](C)[C@H]1CC[C@H]2[C@@H]3[C@@H](O)C[C@@H]4C[C@H](O)CC[C@]4(C)[C@H]3CC[C@]12C)C(=O)N[C@H](CS)C(=O)N[C@@H](C(=O)N1CCC[C@@H]1C(=O)N[C@H](Cc1ccccc1)C(=O)N[C@H](Cc1c[nH]cn1)C(=O)N[C@@H](C(=O)N[C@H](CC(=O)O)C(N)=O)[C@H](C)O)[C@H](C)CC [PR24] (Ursodeoxycholyl-[dD][PEG12][dF][dI][dC][dI][dP][dF][dH][dT][dD]-NH2) was run?
The active in vivo was “*”.

With CCCCCCCCCCCCCCCC(=O)NCCCOCCOCCOCCCNC(=O)COCCOCCOCCNC(=O)[C@H](Cc1ccccc1)NC(=O)C1(NC(=O)[C@H](CS)NC(=O)C2(NC(=O)[C@@H]3CCCN3C(=O)[C@@H](NC(=O)[C@H](Cc3c[nH]cn3)NC(=O)[C@@H](NC(=O)CNCC(=O)O)[C@@H](C)O)C(c3ccccc3)c3ccccc3)CCCCC2)CCCCC1 [PR60] as the molecule, how does the “Active @ 20 nmoles/mouse IP” value (mouse) read?
The value was “Y*”.

Which “Active @ 20 nmoles/mouse IP” value (mouse) does the source give for CCCCCCCCCCCCCCCC(=O)NCCCOCCOCCOCCCNC(=O)COCCOCCOCCNC(=O)C[C@H](Cc1ccccc1)NC(=O)[C@H](CCCNC(=N)N)NC(=O)[C@H](CS)NC(=O)[C@H](CCCNC(=N)N)NC(=O)C[C@@H]1CCCN1C(=O)[C@@H](NC(=O)[C@H](Cc1c[nH]cn1)NC(=O)[C@@H](NC(=O)[C@H](CC(=O)O)NC)[C@@H](C)O)C(c1ccccc1)c1ccccc1 [PR57] (H-[NMeD]TH[Dip][β3hP]RCR[β3hF][AEEEA]-{TTDA(Palmitoyl)}; N-terminus and C-terminus assumed) here?
The value was “Y”.

How did the serum iron (C57/Bl6J mice; 20 nmoles i.p. in liposomal solution) turn out when CCCCCCCCCCCCCCCC(=O)NC[C@H](NC(=O)CCCCCCCCCCCCCCC)C(=O)NCCOCCOCCOCCOCCOCCOCCOCCOCCOCCOCCOCCOCCC(=O)N[C@H](Cc1ccccc1)C(=O)N[C@@H](C(=O)N[C@H](CS)C(=O)N[C@@H](C(=O)N1CCC[C@@H]1C(=O)N[C@H](Cc1ccccc1)C(=O)N[C@H](Cc1c[nH]cn1)C(=O)N[C@@H](C(=O)N[C@H](CC(=O)O)C(N)=O)[C@H](C)O)[C@H](C)CC)[C@H](C)CC [PR28] (Palmitoyl-[Dap](Palmitoyl)[PEG12][dF][dI][dC][dI][dP][dF][dH][dT][dD]-NH2) was run?
Its serum iron is “lesser ability to decrease serum iron than PR27”.

How did the serum iron (C57/Bl6J mice; 50 μg per mouse i.p. in PBS, after 4 hours) turn out when CC[C@H](C)[C@H](NC(=O)[C@H](CS)NC(=O)[C@@H](NC(=O)[C@@H]1CCCN1C(=O)[C@H](Cc1ccccc1)NC(=O)[C@H](Cc1c[nH]cn1)NC(=O)[C@@H](NC(=O)[C@@H](N)CC(=O)O)[C@@H](C)O)[C@@H](C)CC)C(=O)N[C@@H](Cc1ccccc1)C(N)=O [Hep9] was run?
The serum iron was “did not result in a serum iron decrease”.

Which EC50 ([1]; Table 1, 24 h peptide treatment, 50% of maximal loss of fluorescence by Hep25) does the source give for CCCCCCCCCCCCCCCC(=O)NCCOCCOCCOCCOCCOCCOCCOCCOCCOCCOCCOCCOCCC(=O)N[C@H](Cc1ccccc1)C(=O)N[C@@H](C(=O)N[C@H](CS)C(=O)N[C@@H](C(=O)N1CCC[C@@H]1C(=O)N[C@H](Cc1ccccc1)C(=O)N[C@H](Cc1c[nH]cn1)C(=O)N[C@@H](C(=O)N[C@H](CC(=O)O)C(N)=O)[C@H](C)O)[C@H](C)CC)[C@H](C)CC [PR27] here?
The EC50 was 20 nM.

And the serum iron (C57/Bl6J mice; 20 nmoles i.p. in PBS)?
Its serum iron is “comparable to that caused by i.p. administration of 20 nmoles Hep25”.

What about the serum iron (C57/Bl6J mice; 200 nmoles i.p. in PBS) of the same molecule?
Its serum iron is “even greater decrease”.

And the serum iron (C57/Bl6J mice; 200 nmoles oral by gavage in Cremophor EL solution)?
Its serum iron is “caused a decrease in serum iron”.

And the active in vivo (C57/Bl6J mice)?
The active in vivo was “*”.

For CC[C@H](C)[C@H](NC(=O)[C@H](CS)NC(=O)[C@@H](NC(=O)[C@@H]1CCCN1C(=O)C[C@H](NC(=O)[C@H](Cc1c[nH]cn1)NC(=O)[C@@H](NC(=O)[C@@H](N)CC(=O)O)[C@@H](C)O)C(c1ccccc1)c1ccccc1)[C@@H](C)CC)C(=O)N[C@@H](Cc1ccccc1)C(N)=O [F4bhDpa] (H-DTH[X1]PICIF-NH2; N-terminus assumed), which DC50 ([1]; Table 1, 24 h peptide treatment, 50% of maximal loss of fluorescence by Hep25, read-out: EC50 (the source's name)) is on record?
The DC50 was 80 nM.

With N=C(N)NCCC[C@@H]1NC(=O)C2CCC(CC2)CNC(=O)[C@@H](C(c2ccccc2)c2ccccc2)NC(=O)[C@H]2CCCN2C(=O)[C@@H](N)CSSCCNC(=O)[C@H](C(c2ccccc2)c2ccccc2)NC(=O)C2CCN(CC2)C(=O)C2CCC(CC2)CNC1=O [PR-3] (H-C[dP][dDip][X2]R[X2][Inp][Dip]-Cysteamide; disulfide 1-C) as the molecule, how does the EC50 [1] read?
Its EC50 is 1000 nM.
